Calls of active or inactive are those of the source.
Experiments:
[1] = molecular target: T1, Disintegrin and metalloproteinase domain-containing protein 17 (Homo sapiens, UniProt P78536); assay: exosite inhibitors of ADAM17, dose response, biochemical (AID 743260)
[2] = ADAM10 protease inhibitors, dose response, selectivity assay for ADAM17 exosite inhibitor project, biochemical, FRET peptide substrate, recombinant human ADAM10 (AID 743259);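 also: ADAM10 enzyme cleaving a FRET peptide substrate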
[3] = ADAM10 inhibitors, peptide cleavage, dose response, biochemical, QFRET (AID 743254);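 also: ADAM10 enzyme with the DM2 quenched FRET peptide as substrate; EDANS fluorescence gain as the protease cuts the substrate; inhibitor potency against ADAM10 proteolytic activity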
[4] = molecular target: T1, Disintegrin and metalloproteinase domain-containing protein 17; assay: ADAM17 protease inhibitors, dose response, counter-screen for ADAM10 exosite inhibitor project, biochemical, quenched FRET substrate (AID 743253)
[5] = Luminescence Cell-Based Dose Retest to Confirm Inhibitors of Cancer Stem Cells. [Related pubchem assays (depositor defined):AID2717, AID2721]; assay type: functional; conditions: Homo sapiens
[6] = EDANS-DABCYL fluorescence interference, concentration series, dose response, artefact control for kallikrein-7 zymogen activator project, biochemical, fluorescence intensity, triplicate (AID 720493)
[7] = molecular target: Kallikrein-7 (Homo sapiens, UniProt P49862); assay: Fluorescence Intensity-based biochemical primary high throughput dose response assay to identify activators of kallikrein-7 (K7) zymogen.
[8] = HepG2 cell cytotoxicity, dose response, cytotoxicity control, ATP luminescence, cherry-pick, set 6 (AID 1053125); assay type: functional, cell-based
[9] = cells; conditions: A549
[10] = molecular target: Caspase-8 (Homo sapiens, UniProt Q14790); assay: caspase-8 inhibition counter-screen, dose response, selectivity assay for caspase-6 inhibitor project, biochemical, Z-IETD-R110 fluorescence, cherry-picked samples (AID 743294)
[11] = molecular target: T2, Caspase-6 (Homo sapiens, UniProt P55212); assay: human caspase-6 inhibitors, dose response, biochemical, VEID-R110 fluorescence, cherry-pick (AID 720632)
T2 sequence (P55212 whole entry): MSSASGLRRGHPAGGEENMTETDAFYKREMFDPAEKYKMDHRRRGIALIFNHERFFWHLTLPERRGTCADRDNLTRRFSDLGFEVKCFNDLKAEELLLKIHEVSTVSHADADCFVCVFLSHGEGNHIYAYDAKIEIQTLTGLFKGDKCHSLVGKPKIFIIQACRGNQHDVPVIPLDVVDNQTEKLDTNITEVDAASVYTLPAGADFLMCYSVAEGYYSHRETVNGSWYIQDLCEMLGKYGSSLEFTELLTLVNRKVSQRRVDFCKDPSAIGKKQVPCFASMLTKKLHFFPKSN

[12] = molecular target: Caspase-7 (Homo sapiens, UniProt P55210); assay: human caspase-7 inhibitors, dose response, selectivity assay for caspase-6 inhibitor project, biochemical, DEVD-R110 fluorescence, cherry-pick (AID 743295)
[13] = molecular target: Bcl-2-like protein 1 (Homo sapiens, UniProt Q07817); assay: BCL-XL inhibitors, dose response, selectivity assay for MCL1 inhibitor project, biochemical, fluorescence polarization, 1536-well (AID 2218)
[14] = molecular target: Induced myeloid leukemia cell differentiation protein Mcl-1 (Homo sapiens, UniProt Q07820); assay: MCL1-BIM BH3 interaction inhibitors, dose response, biochemical, fluorescence polarization, BIM-BH3 peptide, 1536-well (AID 2217)
[15] = ZM109 Env clade C HIV-1 fusion inhibitors, dose response, HeLa effector, CEM target cells, luciferase, cherry-pick (AID 652058); assay type: functional, cell-based
[16] = off-target signal loss in HeLa-CEM21 co-culture – HeLa F-luc CTL cells, cherry-picked, counter-screen for HIV-1 Env fusion inhibitor project, dose response (AID 652040); assay type: functional, cell-based;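 also: potency for signal decrease marking cytotoxic or nonspecific inhibition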
[17] = inhibitors of HIV Env-driven cell fusion, dose response, cherry-pick (AID 652057); assay type: functional, cell-based
[18] = CEM21 lymphoblast cell cytotoxicity, dose response, cytotoxicity control for viral fusion inhibitor project, CellTiter-Glo luminescence, cherry-picked (AID 652042); assay type: functional, cell-based;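 also: potency for signal decrease meaning cytotoxicity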
[19] = inhibitors of clade B AD8 Env fusion, dose response, cell-based, cherry-pick (AID 652062); assay type: functional;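 also: luciferase signal from cell-cell fusion driven by HIV-1 clade B AD8 Env; potency is for inhibitors of fusion seen as a drop in luminescence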
[20] = molecular target: T3, Microphthalmia-associated transcription factor (Homo sapiens, UniProt O75030); assay: TRPM1 promoter luciferase signal decrease, dose response, MITF inhibitor project, cell-based, SK-MEL-5, cherry-picked, set 3 (AID 493073); assay type: functional
T3 sequence (O75030 whole entry): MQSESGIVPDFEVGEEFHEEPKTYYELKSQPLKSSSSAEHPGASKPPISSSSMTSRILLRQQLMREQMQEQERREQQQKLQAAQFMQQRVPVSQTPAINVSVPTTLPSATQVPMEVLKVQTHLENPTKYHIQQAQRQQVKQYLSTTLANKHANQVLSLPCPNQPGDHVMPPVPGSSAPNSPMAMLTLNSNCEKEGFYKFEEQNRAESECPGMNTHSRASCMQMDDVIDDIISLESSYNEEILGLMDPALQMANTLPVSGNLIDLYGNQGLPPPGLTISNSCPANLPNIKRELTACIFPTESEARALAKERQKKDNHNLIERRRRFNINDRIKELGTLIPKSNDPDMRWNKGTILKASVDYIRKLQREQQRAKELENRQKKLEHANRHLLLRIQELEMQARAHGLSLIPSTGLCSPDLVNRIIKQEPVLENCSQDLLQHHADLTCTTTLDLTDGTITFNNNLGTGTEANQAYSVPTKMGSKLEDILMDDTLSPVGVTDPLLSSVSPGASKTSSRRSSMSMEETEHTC

[21] = non-specific cell cytotoxicity, dose response, cytotoxicity control for PAX8 inhibitor project, plate reader, dry powder samples (AID 743021); assay type: functional, cell-based
[22] = molecular target: Paired box protein Pax-8 (Homo sapiens, UniProt Q06710); assay: inhibitors of PAX8-driven TPO luciferase reporter, dose response, RMG-I cells, cherry-pick (AID 687027); assay type: functional, cell-based;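 also: luciferase reporter driven by Pax8 target thyroperoxidase promoter measured by SteadyGlo luminescence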
[23] = HEK293T cell cytotoxicity, dose response, cytotoxicity control for HIV Vif inhibitor project, cherry-picks (AID 652208); assay type: functional, cell-based
[24] = molecular target: T4, Methionyl-tRNA synthetase, putative (Trypanosoma brucei brucei, UniProt Q38C91); assay type: functional, Trypanosoma brucei brucei strain 927/4 GUTat10.1
T4 sequence (Q38C91 whole entry): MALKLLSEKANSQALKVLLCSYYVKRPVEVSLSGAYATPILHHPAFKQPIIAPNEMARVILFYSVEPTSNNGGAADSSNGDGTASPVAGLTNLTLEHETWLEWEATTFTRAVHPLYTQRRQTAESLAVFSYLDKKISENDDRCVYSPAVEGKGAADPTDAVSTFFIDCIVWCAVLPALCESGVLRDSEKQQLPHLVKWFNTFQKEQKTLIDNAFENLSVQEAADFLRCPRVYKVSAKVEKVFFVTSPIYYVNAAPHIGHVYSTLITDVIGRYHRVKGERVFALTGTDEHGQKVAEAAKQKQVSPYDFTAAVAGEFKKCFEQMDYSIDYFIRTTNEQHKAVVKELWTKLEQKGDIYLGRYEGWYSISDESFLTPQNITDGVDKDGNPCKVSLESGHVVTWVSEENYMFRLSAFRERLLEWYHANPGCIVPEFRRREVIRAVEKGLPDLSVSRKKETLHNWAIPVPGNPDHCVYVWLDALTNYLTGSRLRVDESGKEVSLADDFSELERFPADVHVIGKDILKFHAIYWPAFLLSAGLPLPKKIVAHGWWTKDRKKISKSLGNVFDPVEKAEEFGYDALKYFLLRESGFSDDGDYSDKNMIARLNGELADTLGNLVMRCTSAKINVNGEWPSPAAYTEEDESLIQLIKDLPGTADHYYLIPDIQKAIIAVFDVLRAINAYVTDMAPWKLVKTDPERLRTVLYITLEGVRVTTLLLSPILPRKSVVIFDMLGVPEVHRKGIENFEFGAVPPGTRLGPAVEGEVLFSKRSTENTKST

[25] = molecular target: T4, Methionyl-tRNA synthetase, putative; assay type: functional, Trypanosoma brucei brucei strain 927/4 GUTat10.1; remark: listed apart in the source
[26] = Counterscreen for inhibitors of Trypanosoma brucei methionyl tRNA synthetase (MetRS): Luminescence-based cell-based high throughput dose response assay to identify compounds that are cytotoxic to Jurkat human T lymphocyte cells.; assay type: functional
[27] = Late stage counterscreen for inhibitors of Trypanosoma brucei methionyl tRNA synthetase (MetRS): Luminescence-based cell-based high throughput dose response assay to identify compounds that are cytotoxic to Jurkat human T lymphocyte cells.; assay type: functional

T1 sequence (P78536 whole entry, the tested form may be a part): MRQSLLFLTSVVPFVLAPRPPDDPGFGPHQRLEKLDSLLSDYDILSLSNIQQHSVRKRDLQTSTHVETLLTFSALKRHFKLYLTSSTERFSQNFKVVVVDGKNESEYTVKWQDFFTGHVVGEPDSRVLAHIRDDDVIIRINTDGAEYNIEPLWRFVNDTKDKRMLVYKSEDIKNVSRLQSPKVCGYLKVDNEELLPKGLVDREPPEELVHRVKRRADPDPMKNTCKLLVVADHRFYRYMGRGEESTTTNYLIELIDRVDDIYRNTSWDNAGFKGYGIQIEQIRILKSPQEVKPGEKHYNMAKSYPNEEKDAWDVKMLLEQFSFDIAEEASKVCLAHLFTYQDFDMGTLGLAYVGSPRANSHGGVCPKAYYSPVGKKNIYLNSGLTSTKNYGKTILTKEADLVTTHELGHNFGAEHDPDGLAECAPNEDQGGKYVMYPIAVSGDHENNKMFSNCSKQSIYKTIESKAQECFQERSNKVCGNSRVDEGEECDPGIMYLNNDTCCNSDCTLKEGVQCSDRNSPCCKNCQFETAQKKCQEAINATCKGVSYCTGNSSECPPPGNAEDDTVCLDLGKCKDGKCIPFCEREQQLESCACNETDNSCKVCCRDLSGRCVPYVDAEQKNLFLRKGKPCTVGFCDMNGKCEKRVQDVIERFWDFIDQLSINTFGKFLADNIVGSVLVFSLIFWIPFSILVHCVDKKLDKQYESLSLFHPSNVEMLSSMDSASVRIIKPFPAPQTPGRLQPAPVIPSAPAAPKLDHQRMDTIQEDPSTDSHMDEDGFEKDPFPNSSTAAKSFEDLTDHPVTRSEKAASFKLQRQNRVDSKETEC
Bcl-2-like protein 1, sequence (Q07817 whole entry): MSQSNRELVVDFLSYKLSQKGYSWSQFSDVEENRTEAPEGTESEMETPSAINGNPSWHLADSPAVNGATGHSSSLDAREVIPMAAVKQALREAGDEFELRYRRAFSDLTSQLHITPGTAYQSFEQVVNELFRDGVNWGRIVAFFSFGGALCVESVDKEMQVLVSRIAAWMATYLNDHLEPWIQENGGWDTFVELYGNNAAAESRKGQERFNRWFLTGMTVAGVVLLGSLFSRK
Caspase-7, sequence (P55210 24-198 limits assumed): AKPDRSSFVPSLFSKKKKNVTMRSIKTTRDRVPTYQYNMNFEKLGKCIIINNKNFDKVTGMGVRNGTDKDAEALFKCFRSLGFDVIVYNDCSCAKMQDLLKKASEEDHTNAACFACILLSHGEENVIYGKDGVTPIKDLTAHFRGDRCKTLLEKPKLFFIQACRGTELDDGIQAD
Caspase-7, sequence (P55210 207-303 limits assumed): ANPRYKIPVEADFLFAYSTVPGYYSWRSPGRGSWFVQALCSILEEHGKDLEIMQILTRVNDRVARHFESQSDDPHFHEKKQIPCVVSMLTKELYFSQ
Caspase-8, sequence (Q14790 217-374 limits assumed): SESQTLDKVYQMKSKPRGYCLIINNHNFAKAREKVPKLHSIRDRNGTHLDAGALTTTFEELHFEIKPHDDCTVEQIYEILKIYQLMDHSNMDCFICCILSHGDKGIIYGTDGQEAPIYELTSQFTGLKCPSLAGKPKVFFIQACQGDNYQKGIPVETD
Caspase-8, sequence (Q14790 385-479 limits assumed): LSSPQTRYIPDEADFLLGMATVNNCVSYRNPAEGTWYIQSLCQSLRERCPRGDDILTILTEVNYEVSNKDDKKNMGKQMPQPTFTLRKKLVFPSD
Induced myeloid leukemia cell differentiation protein Mcl-1, sequence (Q07820 whole entry, the tested form may be a part): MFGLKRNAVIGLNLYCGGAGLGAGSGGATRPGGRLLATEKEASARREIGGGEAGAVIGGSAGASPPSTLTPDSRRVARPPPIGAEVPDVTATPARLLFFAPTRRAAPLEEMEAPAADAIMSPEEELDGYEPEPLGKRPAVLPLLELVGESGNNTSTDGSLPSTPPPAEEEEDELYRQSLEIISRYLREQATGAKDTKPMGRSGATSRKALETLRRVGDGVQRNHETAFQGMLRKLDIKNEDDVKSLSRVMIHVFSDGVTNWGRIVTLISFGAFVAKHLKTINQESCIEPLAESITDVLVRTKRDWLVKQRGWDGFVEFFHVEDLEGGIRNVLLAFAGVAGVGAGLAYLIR
Paired box protein Pax-8, sequence (Q06710 whole entry): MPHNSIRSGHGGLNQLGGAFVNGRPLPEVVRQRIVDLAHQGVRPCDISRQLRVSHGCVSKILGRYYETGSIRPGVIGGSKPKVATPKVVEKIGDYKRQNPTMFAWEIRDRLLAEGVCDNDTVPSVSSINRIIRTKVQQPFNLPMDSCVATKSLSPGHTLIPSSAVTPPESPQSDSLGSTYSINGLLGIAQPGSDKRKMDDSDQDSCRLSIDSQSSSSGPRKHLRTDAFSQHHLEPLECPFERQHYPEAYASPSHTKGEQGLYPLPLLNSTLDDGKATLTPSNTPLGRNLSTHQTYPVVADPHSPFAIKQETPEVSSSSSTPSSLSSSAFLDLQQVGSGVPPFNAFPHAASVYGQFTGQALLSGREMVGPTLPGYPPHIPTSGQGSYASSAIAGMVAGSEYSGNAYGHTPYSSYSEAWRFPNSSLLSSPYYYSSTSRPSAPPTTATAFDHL
Kallikrein-7, sequence (P49862 whole entry): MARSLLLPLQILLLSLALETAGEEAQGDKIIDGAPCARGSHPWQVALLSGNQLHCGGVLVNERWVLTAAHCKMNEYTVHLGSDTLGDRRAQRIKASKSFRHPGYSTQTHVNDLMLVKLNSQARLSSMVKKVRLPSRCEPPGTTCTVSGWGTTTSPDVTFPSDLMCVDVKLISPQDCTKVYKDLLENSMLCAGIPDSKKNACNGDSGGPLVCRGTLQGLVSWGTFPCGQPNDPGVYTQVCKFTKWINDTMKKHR

Question: Which IC50 [1] does the source give for `COc1ccc(CNC(=O)CN(Cc2ccc(Cl)cc2)S(=O)(=O)c2ccccc2)cc1` here?
Answer: > 69.5 µM (inactive)

Question: And the IC50 [2]?
Answer: > 69.5 µM (inactive)

Question: Which results are given for `Cc1cc(C)cc(NS(=O)(=O)c2ccc(Oc3ncc(C(F)(F)F)cc3Cl)cc2)c1`?
Answer: IC50 [3]: 12 µM (inactive); IC50 [4]: > 69.5 µM (inactive); AC50 [5]: 2.09 µM (active)

Question: With `CNc1cc(C)c(C#N)c2nc3ccccc3n12` as the compound, how does the EC50 [6] read?
Answer: > 2.58 µM (active)

Question: And the EC50 [7]?
Answer: 3.77 µM (active)

Question: Which results are given for `O=C(NNc1c2ccccc2nc2ccccc12)c1ccc(O)cc1`?
Answer: AC50 [8]: > 52 µM (inactive); AC50 [9]: > 52 µM (inactive)

Question: What does the source list for `CCCCN(C(=O)c1cccc(-n2cccc2)c1)c1c(N)n(CCC)c(=O)[nH]c1=O`?
Answer: AC50 [10]: > 70 µM (inactive); AC50 [11]: 1.93 µM (active); AC50 [12]: 51.2 µM (active); IC50 [13]: > 109 µM (not active); IC50 [14]: > 12.1 µM (not active)

Question: Which results are given for `OCC1OC(n2cnc3c(NCc4ccco4)ncnc32)C(O)C1O` (configuration not stated)?
Answer: AC50 [15]: 6.03 µM (active); AC50 [16]: 36.8 µM (active); AC50 [17]: 7.32 µM (active); AC50 [18]: 2.94 µM (active); AC50 [19]: 6.9 µM (active); AC50 [20]: 3.88 µM (active); AC50 [21]: 1.38 µM (active); AC50 [22]: 2.41 µM (active); AC50 [23]: 13.8 µM (active)

Question: Which results are given for `CN(Cc1cc(Cl)cc(Cl)c1)[C@H]1C[C@H]2c3[nH]c4ccccc4c3CCN2C(=O)[C@H]1CO`?
Answer: IC50 [24]: 1.33 µM (active); IC50 [25]: 1.64 µM (active); IC50 [26]: 80.2 µM (inactive); IC50 [27]: 31.7 µM (inactive)

Source: ChEMBL document CHEMBL1201862, “PubChem BioAssay data set” (2004)
